Measured values reported in PMC8769072, “Proteome‐scale mapping of binding sites in the unstructured regions of the human proteome” (Molecular Systems Biology, 2022).

System: immobilized GST-tagged bait protein domains
Assay: ProP-PD phage selections (HD2 P8, sublibraries, HD2 P3, HD1 P8) with NGS and confidence level
Assay type: binding, human
Details: for HD confidence / HD mean counts / HD count proportions: HD1 P8 library; for HD mean counts: mean NGS counts over replicate selections; for HD count proportions: mean proportion of NGS counts
[1] = HD2 library, bait PDCD6IP_Alix-V-domain__Q8WUM4_360_702, benchmark motif instance, in_library_check FALSE, in_library_coverage 0
[2] = bait MAP1LC3A_ATG8 (Q9H492 2-121), HD2 library, benchmark motif instance recovered in the ProP-PD selection (TRUE/FALSE)
[3] = bait MAP1LC3B_ATG8 (Q9GZQ8 2-119), HD2 library, benchmark motif instance recovered in the ProP-PD selection (TRUE/FALSE)
[4] = bait KPNA4_Arm (O00629 68-487), HD2 library, benchmark motif instance recovered in the ProP-PD selection (TRUE/FALSE)
[5] = bait SIN3A_PAH__Q96ST3_295_383, HD2 library, whether the validated benchmark motif instance was recovered in the ProP-PD selection (TRUE/FALSE)
[6] = HD2 library, bait SUMO1_SUMO__P63165_1_101, known motif instance of the benchmarking set found (TRUE) or not found (FALSE) among selected peptides
[7] = library HD2, bait EPS15_EH__P42566_121_215, whether the validated benchmark motif instance was recovered in the ProP-PD selection (TRUE/FALSE)
[8] = bait CALM1_EF-hand__P0DP23_2_149, library HD2, benchmarking set of validated motif instances, TRUE = motif instance recovered in the ProP-PD selection
[9] = bait OXSR1___O95747_434_527, HD2 library, whether the validated benchmark motif instance was recovered in the ProP-PD selection (TRUE/FALSE)
[10] = bait AP2B1_adaptin__P63010_700_937, confidence level (4 = High, 2-3 = Medium, 1 = Low)
[11] = bait AP2B1_adaptin__P63010_700_937
[12] = library HD2, bait VASP_EVH1__P50552_1_114, validated benchmark motif instance, in_library_check TRUE, TRUE/FALSE = instance recovered in ProP-PD selection
[13] = library HD2, bait USP7_MATH-TRAF__Q93009_53_206, validated benchmark motif instance, in_library_check TRUE, TRUE/FALSE = instance recovered in ProP-PD selection
[14] = library HD2, bait WDR5_WD_1234567_P61964_21_334, validated benchmark motif instance, in_library_check TRUE, TRUE/FALSE = instance recovered in ProP-PD selection
[15] = library HD2, bait KLC1_TPR__Q07866_203_497, whether the validated benchmark motif instance was recovered in the ProP-PD selection (TRUE/FALSE)
[16] = HD2 library, bait TNKS_TANK-peptide-bind__O95271_174_649, known motif instance of the benchmarking set found (TRUE) or not found (FALSE) among selected peptides
[17] = bait SUMO1_SUMO__P63165_1_101, HD2 library, confidence level (1-4) of best matching selected peptide
[18] = bait SUMO1_SUMO__P63165_1_101, HD2 library, specificity score of best matching selected peptide
[19] = bait SUMO1_SUMO__P63165_1_101, HD2 library, whether the validated benchmark motif instance was recovered in the ProP-PD selection (TRUE/FALSE)
[20] = HD2 library, bait CALM1_EF-hand__P0DP23_2_149, benchmark motif instance, in_library_check FALSE, in_library_coverage 0

-----MSLYPSLEDLKVDK [SDCBP 3-7]
motif_found [1]: FALSE

--MELNSLLILLEAAEYLERRDREA [MXD4 6-16]
motif_found (HD2 library, bait SIN3A_PAH__Q96ST3_295_383, benchmark motif instance, in_library_check FALSE, in_library_coverage 0): FALSE

-MDAATLTYDTLRFAEFED
motif_found [2]: FALSE
motif_found [3]: FALSE

-MNSPGGRGKKKGSGGASNPV
motif_found [4]: FALSE

AAAAYVDHFAAECLVSMSSRAVVH
motif_found [5]: FALSE

AAALPQPEVILLDSDLDEPIDL
motif_found [6]: FALSE

AAAVRMNIQMLLEAADYLERREREA
motif_found [5]: FALSE

AAGPSVASSTNPFQTN
best_specificity (library HD2, bait EPS15_EH__P42566_121_215, best matching peptide): 1
best_confidence (library HD2, bait EPS15_EH__P42566_121_215, confidence level of best matching peptide (4 High, 2-3 Medium, 1 Low)): 3
motif_found [7]: TRUE

AAQATGTTNPFLL------
motif_found [7]: FALSE

AASVNANFAHFDNFPK
HD2_endomembrane confidence (bait AP2B1_adaptin__P63010_700_937, HD2 P8 endomembrane sublibrary, confidence level (4 = High, 2-3 = Medium, 1 = Low)): 4

ADTPPPAYLPPEDPMT
best_confidence (library HD2, bait YAP1_WW_1_P46937_169_207, confidence level of best matching selected peptide (4 High, 2-3 Medium, 1 Low)): 2
best_specificity (library HD2, bait YAP1_WW_1_P46937_169_207, specificity score of best matching selected peptide): 1
motif_found (library HD2, bait YAP1_WW_1_P46937_169_207, validated benchmark motif instance, in_library_check TRUE, TRUE/FALSE = instance recovered in ProP-PD selection): TRUE

AEERVVVISSSE
motif_found [6]: FALSE

AESSQAVMSLPKLQQV
HD2 confidence (bait ANKRA2_Ank__Q9H9E1_142_313, library HD2 P8): 4

AFIIWLARRLKKGKK [SELL]
motif_found [8]: FALSE

AGVFKMGRFQVSVAADGAQ
motif_found [9]: FALSE

AIPWAAFPAVSGVHLS
HD confidence [10]: 4
HD mean counts [11]: 2.25
HD count proportions [11]: 0.0009118
HD2 confidence (bait AP2B1_adaptin__P63010_700_937, HD2 P8 library, confidence level (4 = High, 2-3 = Medium, 1 = Low)): 3

AKNGAASKRAFKQSPPAVPALGAGVKKRRHGDEDTYY
motif_found [4]: FALSE

AMICYRKKRKGKLTLEDQAT
motif_found [4]: FALSE

APLEEEIFPSPPPPPEEEG
motif_found [12]: FALSE

APPVSGTFKFNTDAAEFIPQEKKNSGL
motif_found (bait PABP-B_PABP__P11940_544_623, HD2 library, whether the validated benchmark motif instance was recovered in the ProP-PD selection (TRUE/FALSE)): FALSE

AQCSTSDSACRISPGQ
best_confidence (library HD2, bait USP7_MATH-TRAF__Q93009_53_206, confidence level of best matching selected peptide (4 High, 2-3 Medium, 1 Low)): 2
best_specificity (library HD2, bait USP7_MATH-TRAF__Q93009_53_206, specificity score of best matching selected peptide): 1
motif_found [13]: TRUE

AQSMVSGSHCTPPPPY
motif_found (bait NEDD4_WW_4 (P46934 890-928), HD2 library, benchmark motif instance recovered in the ProP-PD selection (TRUE/FALSE)): TRUE
best_confidence (bait NEDD4_WW_4 (P46934 890-928), HD2 library, confidence level (1-4) of best matching peptide): 4
best_specificity (bait NEDD4_WW_4 (P46934 890-928), HD2 library, specificity score of best matching peptide): 0.99

AQSPLPSTNPFQPNGLAPG
motif_found [7]: FALSE

ARKEVIRNKIRAIGKMARVFSVLR,VIRNKIRAIGKMARVFS,KEVIRNKIRAIGKMARVFS [PPP3CA]
motif_found [8]: FALSE

ARTKQ
motif_found [14]: FALSE

ARTKQTA
motif_found [14]: FALSE

ASDDSNGLEWENDFVSAEMDDNGN
motif_found [15]: FALSE

ASFTEDAPRPPVPGEEGELVST
motif_found [16]: FALSE

ASSATRELDELMASLSDFKIQGL
motif_found (bait PTK2_Focal-AT__Q05397_891_1050, HD2 library, whether the validated benchmark motif instance was recovered in the ProP-PD selection (TRUE/FALSE)): FALSE

ASTS
motif_found [13]: FALSE

ATGSDSSGVIDLTMDDEESG
motif_found [6]: FALSE

ATLDALLAALRRIQRAD
motif_found (library HD2, bait CALM1_EF-hand__P0DP23_2_149, motif instance NOT in library (in_library_check FALSE, in_library_coverage 0)): FALSE

ATQCDPEEIIVLSDSD-------
motif_found [6]: FALSE

AVPSVPSTDWEDGDLTDTVSGP
motif_found [15]: FALSE

CNSDRVLKRSAEGSNPPKPLKKLRFDIEGSDE
motif_found [4]: FALSE

CRRPLSRTRNPADGIPAPESSS
motif_found [16]: FALSE

DAPIILSDSEEEEMIILEPDKNPKK
motif_found [6]: FALSE

DAQAGKEPGGSRAHSSHLK
motif_found [13]: FALSE

DATLCSGRFTISTLLS
best_confidence (bait OXSR1___O95747_434_527, HD2 library, confidence level (1-4) of best matching selected peptide): 2
best_specificity (bait OXSR1___O95747_434_527, HD2 library, specificity score of best matching selected peptide): 1
motif_found [9]: TRUE

DDDSSKDSGFTIVSPL
motif_found [2]: TRUE
best_confidence (bait MAP1LC3A_ATG8 (Q9H492 2-121), HD2 library, confidence level (1-4) of best matching peptide): 2
best_specificity (bait MAP1LC3A_ATG8 (Q9H492 2-121), HD2 library, specificity score of best matching peptide): 1

DDDVLIVYELTPTAEQ
best_confidence [17]: 2
best_specificity [18]: 1
motif_found [19]: TRUE

DDGLDEAFSRLAQSRT,WELDDGLDEAFSRLAQSRTNPQVLD [LDLRAP1]
motif_found (bait AP2B1_adaptin__P63010_700_937, library HD2, benchmarking set of validated motif instances, TRUE = motif instance recovered in the ProP-PD selection): TRUE

DDIMPAVKTVIRSIRILKFLVAKRKF [KCNQ4 524-549]
motif_found [20]: FALSE

DDPDAAELNPFGDPDSEEP
motif_found [7]: FALSE

DEIVDLTCESLEPVVV
best_confidence [17]: 2
best_specificity [18]: 1
motif_found [19]: TRUE

DFPPPPPDLEQLRLTD
best_confidence (library HD2, bait VASP_EVH1__P50552_1_114, confidence level of best matching selected peptide (4 High, 2-3 Medium, 1 Low)): 2
best_specificity (library HD2, bait VASP_EVH1__P50552_1_114, specificity score of best matching selected peptide): 1
motif_found [12]: TRUE

DGGTTFEHLWSSLEPD
motif_found (bait MDM2_p53-binding-domain (Q00987 17-125), HD2 library, benchmark motif instance recovered in the ProP-PD selection (TRUE/FALSE)): FALSE

DGNLYPRLYPELSQYMGLS [SDCBP 49-53]
motif_found [1]: FALSE

DGTISVPETWAKFSND
HD confidence [10]: 4
HD mean counts [11]: 1.5
HD count proportions [11]: 0.0006297

DIDQMFSTLLGEMDLLTQSLGVDT
motif_found (HD2 library, bait TLN1_PTB__Q9Y490_309_401, known motif instance of the benchmarking set found (TRUE) or not found (FALSE) among selected peptides): FALSE

DKAITDRVILLQKVIRGFKDRSNFLKLKNA [MYO7A 748-763]
motif_found [20]: FALSE

DKEDDQEHPSEKQPSGAESGTLARASLALPTSSLSRTASQSSSHRGWEILRQNTLGHLNLGLNLSEGDGEE [TRPV5]
motif_found [8]: FALSE

DLRKIPDSNPFDATAGYRS
motif_found [7]: FALSE

DNEKECIIVWEKK
motif_found [6]: FALSE

DPSMDKAAVKIQAAFKGYKVRKEMKQQEGPM [OBSCN]
motif_found [8]: FALSE

DRHRIEEKRKRTYETFKSIMK [RELA 301-307]
motif_found (HD2 library, bait KPNA4_Arm__O00629_68_487, benchmark motif instance, in_library_check FALSE, in_library_coverage 0): FALSE

DSFYNNSYNPFKEVQTPQY
motif_found [7]: FALSE

DSSCDTDDFVMVPAQFPGD
motif_found [2]: FALSE
motif_found [3]: FALSE

DSSKDSGFTIVSPLDI
motif_found [3]: TRUE
best_confidence (bait MAP1LC3B_ATG8 (Q9GZQ8 2-119), HD2 library, confidence level (1-4) of best matching peptide): 4
best_specificity (bait MAP1LC3B_ATG8 (Q9GZQ8 2-119), HD2 library, specificity score of best matching peptide): 1

DTGKENEMDWDDSALTITVNPMET
motif_found [15]: FALSE

DTHAKWEQATKLILNY
confidence (library HD, bait CALM1_EF-hand__P0DP23_2_149, ProP-PD peptides with disease-related mutations): 3

DTLWRPMPKLAPLGLKVAN
motif_found (library HD2, bait ZMYND11_coiled-coil-MYND__Q15326_480_602, validated benchmark motif instance, in_library_check TRUE, TRUE/FALSE = instance recovered in ProP-PD selection): FALSE
